Results from paper PMC11992225, “Antibacterial compounds against non-growing and intracellular bacteria” (npj Antimicrobials and Resistance, 2025).
Converted amounts (≈) assume the structure as drawn.

How the values were obtained:
[1] = system: non-growing P. aeruginosa DSM1117; test: Dose-dependent killing analysis (CFU spot-plating) of stationary-phase P. aeruginosa; format: cell-based, Pseudomonas aeruginosa
Procedure, shortened: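 Viability by CFU: samples serially diluted 10-fold in PBS, spotted on LB agar, grown overnight at 37 °C, and colonies counted at the lowest resolvable dilution. Non-growing P. aeruginosa DSM1117 had been dosed for 24 h in 1:4 CA-MHB (pH 7.4); three biological replicates.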

[2] = system: non-growing S. aureus DSM2569; test: Dose-dependent killing analysis (CFU spot-plating) of stationary-phase S. aureus;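 also: drug concentration in µM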; format: cell-based, Staphylococcus aureus; conditions: S. aureus, vs 9,097 before treatment
Procedure, shortened: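 Survival was scored as CFU after overnight growth at 37 °C on LB agar, using spots from 10-fold PBS dilutions of treated cultures. Non-growing S. aureus DSM2569 had been exposed to compound for 24 h in 1:4 CA-MHB, pH 7.4. Three biological replicates were run.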

S. aureus DSM2569 = test: MIC, standard microdilution assay, growing S. aureus; format: cell-based, Staphylococcus aureus; conditions: Staphylococcus aureus, DSM2569; S. aureus; CA-MHB pH 7.4; read-out: MIC (μM) CA-MHB
Procedure, shortened: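 Medium: CA-MHB + 40 mM HEPES, pH 7.4 (UPEC, P. aeruginosa, S. aureus); LPM + 30 mM MES, pH 5.5 (UPEC, extra condition); TSB (S. flexneri). Microdilution format, n = 3.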

non-growing UPEC CFT073 = test: Dilution-regrowth assay (screen, hit validation, dose-response) on stationary-phase UPEC; format: cell-based, Escherichia coli; conditions: Escherichia coli; E. coli, pH 7.4; regrowth delay of non-growing bacteria, 1:4 CA-MHB, 24 h treatment, OD600 6 h after 2500-fold dilution; read-out: EC50
Procedure, shortened: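 Regrowth (OD600 after 6 h, 37 °C) of diluted non-growing CFT073, following 24 h compound treatment of 24 h stationary cultures, defines activity relative to untreated control. Screen at 20 µM, validation at 20, 10, 5 µM (duplicates), dose–response in three biological replicates fitted by five-parameter logistic.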

NC1CCN(c2c(F)cc3c(=O)c(C(=O)O)cn(C4CC4)c3c2Cl)C1 (centres unmarked) [Clinafloxacin]
reduction of bacterial counts, stationary phase P. aeruginosa ([1]; at 0.5 µM, 24 h treatment): more than four
reduction of bacterial counts, non-growing P. aeruginosa ([1]; at 2.5 µM, 1:4 CA-MHB pH 7.4, 24 h treatment): more than four
average Δlog10(CFU/ml) (killing) ([2]; drug conc 0.1): 0.189 log10(CFU/ml)
average Δlog10(CFU/ml) (killing) ([2]; drug conc 0.5): 0.859 log10(CFU/ml)
average Δlog10(CFU/ml) (killing) ([2]; drug conc 2.5): 1.351 log10(CFU/ml)
average Δlog10(CFU/ml) (killing) ([2]; drug conc 10): 1.499 log10(CFU/ml)
MIC (S. aureus DSM2569): 0.125 µM (≈ 0.0457 µg/mL)
EC50 (non-growing UPEC CFT073): 0.906 µM
